Laboratory results taken from patent EP4559922A1, “ANTIHISTAMINE COMPOUND, PREPARATION METHOD THEREFOR AND USE THEREOF” (HC Synthetic Pharmaceutical Co., Ltd., priority 2022, dated 2024).
≈ marks a conversion by molar mass, not a printed value.

Legend:
[1] = system: histamine-induced asthma in guinea pigs; experiment: Antiasthmatic effect on histamine-induced asthma in guinea pigs (latency period); assay type: in vivo; conditions: X±s, n = 5; for Post-administration latency period: 1 mg/kg oral gavage, sixty minutes after administration, histamine hydrochloride spray, capped at 8 minutes; for Pre-administration latency period: baseline before administration, histamine hydrochloride 0.8 mg/mL sprayed 40 seconds
Description: The guinea pigs were placed in a polymethyl methacrylate bell jar and a histamine hydrochloride solution was sprayed ultrasonically (0.8 mg/mL) for 40 seconds. The time point at which the guinea pigs developed asthma was recorded. The time of convulsion and fall was taken as the latency period. Guinea pigs with a latency period exceeding 180 seconds were not selected. […] The guinea pigs were administered by oral gavage at a dose of 2 mL/kg·bw. Sixty minutes after the administration, the guinea pigs were placed in bell jars, and histamine hydrochloride solution was sprayed under the same conditions as in the previous selection. The latency period for the onset of asthma was recorded. […] The results were processed statistically.

[2] = Solubility of the compounds in water, methanol and isopropanol; assay type: physicochemical; conditions: for Solubility in Water: solvent water; for Solubility in Isopropanol: solvent isopropanol; for Solubility in Methanol: solvent methanol
Description: The solubility in water, methanol, and isopropanol of the compounds of the present disclosure and the comparative compounds were measured separately.

histamine = experiment: Antagonism of histamine-induced contraction of isolated ileal smooth muscle of guinea pigs; conditions: x±s, n = 8; for Smooth muscle tone After administration: 3 minutes after adding 0.05 mL compound following histamine; for Smooth muscle tone After addition of histamine: after 0.05 mL histamine, before compound; for Smooth muscle tone Before administration: baseline before histamine
Description: (§1) The guinea pig was knocked unconscious with a wooden stick, and the abdomen was immediately dissected to separate the ileum about 15 cm in length. The contents of the intestinal segment were flushed with Tyrode's solution and placed in Tyrode's solution at a constant temperature of 37°C for later use, and oxygen was supplied simultaneously. The experimental intestinal tract (1 cm in length) was cut and placed into 20 ml of Tyrode's solution at a constant temperature of 37°C with a continuous oxygen supply. One end of the intestine was fixed on the ventilation hook and the other end was connected to the muscle tone transducer and led to the computer interface. The muscle tone value of the ileal smooth muscle was recorded with a BL system. The experiment was carried out after the intestinal segment contraction became stable.
(§2) After the ileal peristalsis curve stabilized, the tone values before adding the compound were recorded, and then 0.05 mL of histamine was added. […] The operation was repeated 8 times. The antispasmodic percentage was calculated using the following equation. Antispasmodic percentage =; (Tone value after adding histamine−Tone value after adding subject compound)/(Tone value after adding histamine) × 100% [formula]

[3] = as above; conditions: relative to tone after adding histamine; x±s, n = 8; 3 min
Description: as §1, §2

[4] = system: isolated ileal smooth muscle of guinea pigs; experiment: Effect on muscle tone of isolated ileal smooth muscle of guinea pigs (no histamine added); conditions: X±s; for Smooth muscle tone After administration: 5 minutes after adding drug; for Smooth muscle tone After administration / Smooth muscle tone Before administration: n = 8; for Smooth muscle tone Before administration: baseline; for Antispasmodic percentage: relative to tone before adding compound, n = 8, 5 min
Description: as §1
After the ileum contraction curve stabilized, the tone values before adding the drug were recorded, then the drug or DMSO was added, and the average tone value of the ileum contraction curve at that point was recorded 5 minutes later. The operation was repeated 8 times. The antispasmodic percentage was calculated according to the following formula. Antispasmodic percentage =; (Tone value before adding subject compound−Tone value after adding subject compound)/(Tone value before adding subject compound); × 100% [formula]

Solubility in Water [2] | Solubility in Isopropanol [2] [mg/mL] | Solubility in Methanol [2] [mg/mL] | Compound | Post-administration latency period [1] [s] | Pre-administration latency period [1] [s] | Smooth muscle tone After administration (histamine) [g] | Smooth muscle tone After addition of histamine (histamine) [g] | Smooth muscle tone Before administration (histamine) [g] | Antispasmodic percentage [3] [%] | Smooth muscle tone After administration [4] [g] | Smooth muscle tone Before administration [4] [g] | Antispasmodic percentage ([4]; 5 min) [%] | Antispasmodic percentage [4] [%]
20 mg/mL (≈ 49.3 mM) |  |  | O=C1Cc2ccccc2C(=C2CCN(COP(=O)(O)O)CC2)c2ccsc21 [Compound III-1] | 376.25 ± 51.77 | 98.57 ± 49.10 | 1.14 ± 0.23 | 3.43 ± 1.06 | 1.79 ± 0.21 | 66.76±16.11 | 1.18 ± 0.25 | 1.70 ± 0.17 | 30.59±18.11 | 
20 mg/mL (≈ 44.7 mM) |  |  | O=C1Cc2ccccc2C(=C2CCN(CCCCOP(=O)(O)O)CC2)c2ccsc21 [Compound III-4] | 369.49 ± 51.06 | 99.07 ± 50.25 | 1.23 ± 0.24 | 3.44 ± 0.96 | 1.78 ± 0.17 | 64.24±17.11 | 1.16 ± 0.23 | 1.72 ± 0.16 | 32.55±18.33 | 
20 mg/mL (≈ 43.3 mM) |  |  | O=C1Cc2ccccc2C(=C2CCN(CCCCCOP(=O)(O)O)CC2)c2ccsc21 [Compound III-5] | 375.52 ± 49.26 | 102.32 ± 54.23 | 1.20 ± 0.21 | 3.43 ± 0.93 | 1.73 ± 0.21 | 65.01±18.17 | 1.13 ± 0.31 | 1.70 ± 0.20 | 33.53±19.21 | 
20 mg/mL (≈ 41.9 mM) |  |  | O=C1Cc2ccccc2C(=C2CCN(CCCCOCOP(=O)(O)O)CC2)c2ccsc21 [Compound III-8] | 376.24 ± 50.42 | 99.49 ± 51.11 | 1.12 ± 0.21 | 3.42 ± 0.99 | 1.78 ± 0.20 | 66.47±18.83 | 1.16 ± 0.21 | 1.70 ± 0.29 | 31.76±18.69 | 
20 mg/mL (≈ 40.7 mM) |  |  | O=C1Cc2ccccc2C(=C2CCN(CCCCCOCOP(=O)(O)O)CC2)c2ccsc21 [Compound III-9] | 267.95 ± 51.16 |  | 1.17 ± 0.24 |  |  | 67.25±17.74 | 1.12 ± 0.29 |  | 34.50±19.89 | 
Practically insoluble | 28 (≈ 73.1 mM) | 22 (≈ 57.5 mM) | OCCCCN1CCC(=C2c3ccc(Cl)cc3CCc3cccnc32)CC1 [Hydroxybutyl desloratadine, reference compound] | 286.23 ± 55.29 |  | 1.45 ± 0.47 |  |  | 57.77±13.69 | 1.31 ± 0.28 |  |  | 24.27±12.31
Practically insoluble | 21 (≈ 59.2 mM) | 27 (≈ 76.1 mM) | OCCN1CCC(=C2c3ccc(Cl)cc3CCc3cccnc32)CC1 [Hydroxyethyl desloratadine, reference compound] | 281.12 ± 54.82 |  | 1.41 ± 0.43 |  |  | 58.53±10.79 | 1.33 ± 0.27 |  |  | 21.76±10.04
Practically insoluble | 32 (≈ 77.9 mM) | 15 (≈ 36.5 mM) | OCCCCCCN1CCC(=C2c3ccc(Cl)cc3CCc3cccnc32)CC1 [Hydroxyhexyl desloratadine, reference compound] | 281.18 ± 53.76 |  | 1.43 ± 0.47 |  |  | 58.06±13.39 | 1.30 ± 0.30 |  |  | 24.42±11.13
Practically insoluble | 29 (≈ 73.1 mM) | 19 (≈ 47.9 mM) | OCCCCCN1CCC(=C2c3ccc(Cl)cc3CCc3cccnc32)CC1 [Hydroxypentyl desloratadine, reference compound] | 284.29 ± 57.34 |  | 1.44 ± 0.51 |  |  | 57.48±12.05 | 1.28 ± 0.24 |  |  | 25.14±12.21
Practically insoluble | 26 (≈ 70.5 mM) | 24 (≈ 65.1 mM) | OCCCN1CCC(=C2c3ccc(Cl)cc3CCc3cccnc32)CC1 [Hydroxypropyl desloratadine, reference compound] | 285.28 ± 56.32 |  | 1.46 ± 0.49 |  |  | 57.05±12.07 | 1.30 ± 0.24 |  |  | 23.97±11.12
Practically insoluble |  |  | Cc1cncc(CN2CCC(=C3c4ccccc4CC(=O)c4sccc43)CC2)c1 [Rupatifen, reference compound] | 253.23 ± 52.29 |  | 1.52 ± 0.46 |  |  | 55.42±11.38 | 1.31 ± 0.25 |  |  | 23.84±11.10

Compound | Solubility in Water [2] | Solubility in Isopropanol [2] [mg/mL] | Solubility in Methanol [2] [mg/mL] | Post-administration latency period [1] [s] | Pre-administration latency period [1] [s] | Smooth muscle tone After administration (histamine) [g] | Smooth muscle tone After addition of histamine (histamine) [g] | Smooth muscle tone Before administration (histamine) [g] | Antispasmodic percentage [3] [%] | Smooth muscle tone After administration [4] [g] | Smooth muscle tone Before administration [4] [g] | Antispasmodic percentage ([4]; 5 min) [%] | Antispasmodic percentage [4] [%]
O=C1Cc2ccccc2C(=C2CCN(CCOP(=O)(O)O)CC2)c2ccsc21 [Compound III-2] | 20 mg/mL (≈ 47.7 mM) |  |  | 377.22 ± 50.87 | 99.48 ± 50.88 | 1.18 ± 0.21 | 3.41 ± 0.89 | 1.75 ± 0.18 | 65.39±17.28 | 1.21 ± 0.24 | 1.70 ± 0.21 | 28.82±16.05 | 
